Results: ChEMBL document CHEMBL5252609, “Design, synthesis, and antitumor evaluation of morpholine substituted bisnaphthalimides as DNA targeting agents” (Bioorg Med Chem Lett, 2023)
Activity calls are given as the source filed them. No cut-off for these calls is given here.

Columns and labels:
[1] = target: T1, DNA topoisomerase 1 (Homo sapiens) (UniProt P11387); assay: Inhibition of human DNA topoisomerase 1 assessed as reduction in pBR322 DNA relaxation at 10 to 20 uM by gel electrophoresis method; settings: dose 10-20 µM
T1 sequence (whole entry): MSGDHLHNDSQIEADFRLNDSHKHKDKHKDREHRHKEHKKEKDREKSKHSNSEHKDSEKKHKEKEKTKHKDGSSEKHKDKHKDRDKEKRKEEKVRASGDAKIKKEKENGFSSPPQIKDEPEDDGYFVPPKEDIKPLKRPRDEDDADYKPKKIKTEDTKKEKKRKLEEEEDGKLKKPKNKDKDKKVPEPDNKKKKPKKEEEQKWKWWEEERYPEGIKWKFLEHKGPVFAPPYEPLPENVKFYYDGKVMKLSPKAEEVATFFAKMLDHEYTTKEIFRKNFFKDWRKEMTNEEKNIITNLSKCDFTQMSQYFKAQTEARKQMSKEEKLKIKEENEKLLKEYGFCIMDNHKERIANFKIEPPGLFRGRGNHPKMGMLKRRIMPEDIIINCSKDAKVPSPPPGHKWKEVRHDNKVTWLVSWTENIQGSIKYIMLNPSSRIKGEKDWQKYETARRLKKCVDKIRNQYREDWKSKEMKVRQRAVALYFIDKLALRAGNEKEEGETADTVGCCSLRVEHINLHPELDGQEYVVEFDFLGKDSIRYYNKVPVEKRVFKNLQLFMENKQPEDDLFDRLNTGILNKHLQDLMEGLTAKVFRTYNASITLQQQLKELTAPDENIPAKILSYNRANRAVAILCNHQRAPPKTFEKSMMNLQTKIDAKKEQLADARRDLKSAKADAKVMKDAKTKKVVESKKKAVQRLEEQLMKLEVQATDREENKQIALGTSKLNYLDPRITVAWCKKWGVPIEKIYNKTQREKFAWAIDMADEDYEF

CNE-2 [2] = assay: Induction of apoptosis in human CNE-2 cells assessed as early apoptotic cells at 2 uM measured after 24 hrs by annexin-V-FITC and PI staining based flow cytometry analysis (reference value: 0.439%); type: functional
CNE-2 [3] = assay: Induction of cell cycle arrest in human CNE-2 cells assessed as accumulation of cells at G2 phase at 1 uM measured after 48 hrs by flow cytometry analysis (Rvb= 6.99%); type: functional
CNE-2 [4] = assay: Induction of apoptosis in human CNE-2 cells assessed as late apoptotic cells at 1 uM measured after 24 hrs by annexin-V-FITC and PI staining based flow cytometry analysis (reference value: 3.79%); type: functional
CNE-2 [5] = assay: Induction of apoptosis in human CNE-2 cells at 0.5 to 2 uM by Hoechst 33258 staining based fluorescence microscopic analysis; type: functional, cell-based; settings: dose 0.5-2 µM
CNE-2 [6] = assay: Induction of apoptosis in human CNE-2 cells assessed as necrotic cells at 2 uM measured after 24 hrs by annexin-V-FITC and PI staining based flow cytometry analysis (reference value: 0.959%); type: functional
CNE-2 [7] = assay: Induction of cell cycle arrest in human CNE-2 cells assessed as accumulation of cells at S phase at 2 uM measured after 48 hrs by flow cytometry analysis (Rvb= 19.83%); type: functional
CNE-2 [8] = assay: Induction of apoptosis in human CNE-2 cells assessed as late apoptotic cells at 2 uM measured after 24 hrs by annexin-V-FITC and PI staining based flow cytometry analysis (reference value: 3.79%); type: functional
CNE-2 [9] = assay: Induction of apoptosis in human CNE-2 cells assessed as viable cells at 2 uM measured after 24 hrs by annexin-V-FITC and PI staining based flow cytometry analysis (reference value: 94.8%); type: functional; settings: read-out: Activity
CNE-2 [10] = assay: Induction of cell cycle arrest in human CNE-2 cells assessed as accumulation of cells at G2 phase at 0.5 uM measured after 48 hrs by flow cytometry analysis (Rvb= 6.99%); type: functional
CNE-2 [11] = assay: Induction of apoptosis in human CNE-2 cells assessed as necrotic cells at 1 uM measured after 24 hrs by annexin-V-FITC and PI staining based flow cytometry analysis (reference value: 0.959%); type: functional
CNE-2 [12] = assay: Downregulation of cyclin B level in human CNE-2 cells measured after 48 hrs by Western blot analysis; type: functional, cell-based; settings: dose <= 2.0 µM
CNE-2 [13] = assay: Induction of ROS generation in human CNE-2 cells at 0.5 to 2 uM incubated for 24 hrs by DCFH2-DA probe based analysis; type: functional, cell-based; settings: dose 0.5-2 µM
CNE-2 [14] = assay: Induction of apoptosis in human CNE-2 cells assessed as viable cells at 0.5 uM measured after 24 hrs by annexin-V-FITC and PI staining based flow cytometry analysis (reference value: 94.8%); type: functional; settings: read-out: Activity
CNE-2 [15] = assay: Downregulation of cyclin E level in human CNE-2 cells measured after 48 hrs by Western blot analysis; type: functional, cell-based; settings: dose <= 2.0 µM
Homo sapiens [16] = species: Homo sapiens; assay: Binding affinity to pBR322 DNA (unknown origin) assessed as induced retardation of DNA migration at 20 to 100 uM by gel electrophoresis assay; settings: dose 20-100 µM
Homo sapiens [17] = species: Homo sapiens; assay: Binding affinity to pBR322 DNA (unknown origin) assessed as DNA intercalation at 20 to 100 uM by electrophoresis assay; settings: dose 20-100 µM
CNE-2 [18] = assay: Upregulation of p27 level in human CNE-2 cells measured after 48 hrs by Western blot analysis; type: functional, cell-based; settings: dose <= 2.0 µM
MGC-803 [19] = assay: Antitumor activity against human MGC-803 cells xenografted in nude mouse assessed as reduction in tumor volume growth rate at 8 mg/kg, ip administrated every other day for 21 days relative to control; type: functional; design: scale not given: the % may be the effect or the level left; settings: time 21 day
CNE-2 [20] = assay: Induction of cell cycle arrest in human CNE-2 cells assessed as accumulation of cells at S phase at 0.5 uM measured after 48 hrs by flow cytometry analysis (Rvb= 19.83%); type: functional
A2780 = assay: Antiproliferative activity against human A2780 cells assessed as cell growth inhibition by MTT assay; type: functional, cell-based
MGC-803 [21] = assay: Antitumor activity against human MGC-803 cells xenografted in nude mouse assessed as reduction in tumor weight at 4 mg/kg, ip administrated every other day for 21 days relative to control; type: functional; design: scale not given: the % may be the effect or the level left; settings: time 21 day
CNE-2 [22] = assay: Induction of apoptosis in human CNE-2 cells assessed as late apoptotic cells at 0.5 uM measured after 24 hrs by annexin-V-FITC and PI staining based flow cytometry analysis (reference value: 3.79%); type: functional
CNE-2 [23] = assay: Induction of cell cycle arrest in human CNE-2 cells assessed as accumulation of cells at G1 phase at 2 uM measured after 48 hrs by flow cytometry analysis (Rvb= 73.18%); type: functional
CNE-2 [24] = assay: Induction of apoptosis in human CNE-2 cells assessed as early apoptotic cells at 0.5 uM measured after 24 hrs by annexin-V-FITC and PI staining based flow cytometry analysis (reference value: 0.439%); type: functional
CNE-2 [25] = assay: Induction of cell cycle arrest in human CNE-2 cells assessed as accumulation of cells at G1 phase at 0.5 uM measured after 48 hrs by flow cytometry analysis (Rvb= 73.18%); type: functional
CNE-2 [26] = assay: Induction of cell cycle arrest in human CNE-2 cells assessed as accumulation of cells at G2 phase at 2 uM measured after 48 hrs by flow cytometry analysis (Rvb= 6.99%); type: functional
MGC-803 [27] = assay: Antitumor activity against human MGC-803 cells xenografted in nude mouse assessed as reduction in tumor weight at 8 mg/kg, ip administrated every other day for 21 days relative to control; type: functional; design: scale not given: the % may be the effect or the level left; settings: time 21 day

SMILES | inhibition [1] | Activity (CNE-2 [2]) [%] | Activity (CNE-2 [3]) [%] | Activity (CNE-2 [4]) [%] | Activity (CNE-2 [5]) | Activity (CNE-2 [6]) [%] | Activity (CNE-2 [7]) [%] | Activity (CNE-2 [8]) [%] | viability at 2 µM (CNE-2 [9]) [%] | Activity (CNE-2 [10]) [%] | Activity (CNE-2 [11]) [%] | Activity (CNE-2 [12]) | Activity (CNE-2 [13]) | viability at 0.5 µM (CNE-2 [14]) [%] | Activity (CNE-2 [15]) | Activity (Homo sapiens [16]) | Activity (Homo sapiens [17]) | Activity (CNE-2 [18]) | Activity (MGC-803 [19]) [%] | Activity (CNE-2 [20]) [%] | other results
CN(C)CCN1C(=O)c2cccc3c(N4CCOCC4)c([N+](=O)[O-])cc(c23)C1=O | Active | 17 | 12.63 | 8.53 | Active | 1.91 | 35.62 | 9.2 | 71.9 | 7.03 | 5.56 | Dose-Dependent Effect | Active | 84 | Dose-Dependent Effect | Active | Active | Dose-Dependent Effect | 56.1 | 20.05 | IC50 (A2780): 4810 nM; Activity (MGC-803 [21]): 34.4%; Activity (CNE-2 [22]): 8.17%; Activity (CNE-2 [23]): 38.9%; Activity (CNE-2 [24]): 5.68%; Activity (CNE-2 [25]): 72.47%; Activity (CNE-2 [26]): 25.48%; Activity (MGC-803 [27]): 46.9%
O=C1c2cccc3c(N4CCOCC4)c([N+](=O)[O-])cc(c23)C(=O)N1CCNCCN1C(=O)c2cccc3c(N4CCOCC4)c([N+](=O)[O-])cc(c23)C1=O | Active | 2.62 | 2.69 | 7.06 | Active | 13.9 | 49.01 | 13.4 | 70.1 | 1.55 | 7.3 | Dose-Dependent Effect | Active | 82.6 | Dose-Dependent Effect | Active | Active | Dose-Dependent Effect | 46 | 31.78 | IC50 (A2780): 620 nM; Activity (MGC-803 [21]): 44.7%; Activity (CNE-2 [22]): 6.61%; Activity (CNE-2 [23]): 39.09%; Activity (CNE-2 [24]): 3.7%; Activity (CNE-2 [25]): 66.68%; Activity (CNE-2 [26]): 11.96%; Activity (MGC-803 [27]): 46%
